Laboratory results taken from PubChem BioAssay (NCI).
Where “and” joins values, the source holds several entries; their conditions need not be identical. Equal entries are not always repeated.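 Compound exposure: 48 hours, 5 concentrations, 96-well plates. The concentration for 50% growth inhibition is given as GI50. The concentration for full growth arrest is given as TGI.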

How the values were obtained:
Assay in all cases: inhibition of tumour cell growth, NCI panel, 48 h
[1] = tested on: SF-268 CNS
[2] = tested on: CAKI-1 renal
[3] = tested on: OVCAR-8 ovarian
[4] = tested on: BT-549 breast
[5] = tested on: HOP-92 NSCLC
[6] = tested on: TK-10 renal
[7] = tested on: SR leukemia
[8] = tested on: NCI-H522 lung
[9] = tested on: 786-0 renal
[10] = tested on: OVCAR-5 ovarian

| SMILES | GI50 [1] | TGI [1] | GI50 [2] | TGI [2] | GI50 [3] | TGI [3] | GI50 [4] | TGI [4] | GI50 [5] | TGI [5] | GI50 [6] | TGI [6] | GI50 [7] | GI50 [8] | TGI [8] | GI50 [9] | TGI [9] | GI50 [10] | TGI [10] | TGI [7] |
| --- | --- | --- | --- | --- | --- | --- | --- | --- | --- | --- | --- | --- | --- | --- | --- | --- | --- | --- | --- | --- |
| Cc1cc(N2CCCC2)nc(NCc2cc(Nc3ccnc4cc(Cl)ccc34)ccc2F)n1 | 1.36 µM | 3.14 µM | 1.38 µM | 2.86 µM | 1.69 µM | 3.27 µM | 1.54 µM | 3.3 µM | 1.19 µM | 2.57 µM | 2.14 µM | 3.72 µM | 0.243 µM | 1.41 µM | 3.09 µM | 1.34 µM | 2.84 µM | – | – | – |
| OCCNCCCOc1ccc2ncnc(Nc3ccc(Oc4cccc(C(F)(F)F)c4)c(Cl)c3)c2c1 | – | – | 2.99 µM | 11.6 µM | 2.24 µM | 5.83 µM | 1.82 µM | 4.25 µM | 1.05 µM | 2.37 µM | 1.13 µM | 2.54 µM | 1.62 µM | – | – | 1.62 µM | 3.03 µM | 1.65 µM | 3.24 µM | 4.65 µM |
| C[n+]1c(-c2ccc(/C=N/NC(=O)c3ccc(C(=O)N/N=C/c4ccc(-c5cn6ccccc6[n+]5C)cc4)cc3)cc2)cn2ccccc21 | > 1000 µM | > 1000 µM | > 1000 µM | > 1000 µM | 184 µM | 323 µM | 874 µM | > 1000 µM | 198 µM | 362 µM | 228 µM | 374 µM | – | 186 µM | 326 µM | 126 µM | 53.7 µM and 252 µM | > 1000 µM | > 1000 µM | 218 µM |
| Cc1cc(C(=O)O)c(C)n1-c1cccc(C(=O)O)c1 | > 100 µM | > 100 µM | – | – | > 100 µM | > 100 µM | > 100 µM | > 100 µM | > 100 µM | > 100 µM | > 100 µM | > 100 µM | > 100 µM | > 100 µM | > 100 µM | > 100 µM | > 100 µM | > 100 µM | > 100 µM | > 100 µM |
| O=C(O)CCc1c2ccc(=O)c(O)c-2oc2c(O)c(O)ccc12 | – | > 100 µM | – | > 100 µM | – | > 100 µM | – | > 100 µM | – | > 100 µM | – | > 100 µM | – | – | > 100 µM | – | > 100 µM | – | > 100 µM | > 100 µM |
| Cn1c2ccccc2c2c3[nH][nH]c(=O)c3c3c4ccccc4[nH]c3c21 | 2.62 µM | 14.4 µM | 2.22 µM | > 100 µM | 2.9 µM | 28 µM | 1.59 µM | 5.3 µM | 3.73 µM | 8.98 µM | 4.74 µM | 57.2 µM | – | 1.56 µM | 10.4 µM | 3.06 µM | 31.6 µM | 4.21 µM | > 100 µM | – |
| C/C(=N\N=C(\[Se])N(C)C)c1ccccn1 | – | 25.6 µM | – | 16.1 µM | – | 6.46 µM | – | 21.4 µM | – | 13.1 µM | – | 18.1 µM | – | – | 0.975 µM | – | 18.3 µM | – | 7.31 µM | 23.7 µM |
| COc1cc(N2CCN(C(C)C)CC2)ccc1Nc1nc(Nc2cccc(F)c2C(=O)O)c2cc[nH]c2n1 | > 25 µM | > 25 µM | > 25 µM | > 25 µM | > 25 µM | > 25 µM | > 25 µM | > 25 µM | 1.06 µM | > 25 µM | > 25 µM | > 25 µM | > 25 µM | > 25 µM | > 25 µM | > 25 µM | > 25 µM | > 25 µM | > 25 µM | > 25 µM |
| CC(C)CC(Nc1c(O)ccc2ccccc12)C(=O)O (centres undefined) | – | 83.3 µM | – | 47.4 µM | – | – | – | 83.6 µM | – | – | – | > 100 µM | – | – | > 100 µM | – | > 100 µM | – | > 100 µM | > 100 µM |
| Cc1ccn2c(CCc3nnc4cc(C)ccn34)nnc2c1 | – | > 100 µM | – | > 100 µM | – | > 100 µM | – | > 100 µM | – | > 100 µM | – | > 100 µM | – | – | > 100 µM | – | > 100 µM | – | > 100 µM | > 100 µM |
| CN1CCN(c2nc(NCCCNc3ccnc4cc(Cl)ccc34)c3ccccc3n2)CC1 | 4.71 µM | 19.2 µM | – | – | 5.92 µM | 20.7 µM | 4.4 µM | 16.7 µM | 2.07 µM | 6.43 µM | 10.8 µM | 26.2 µM | 1.74 µM | 3.24 µM | 7.7 µM | 3.58 µM | 12.9 µM | 4.17 µM | 19.1 µM | 6.05 µM |
| COc1ccc(-c2cc(-c3cc(Cl)cc(Br)c3O)[nH]c(=O)n2)cc1 | – | 50 µM | – | 37.2 µM | – | 37.2 µM | – | – | – | 34.7 µM | – | 47.3 µM | – | – | 30 µM | – | 32 µM | – | – | 51.8 µM |
| O=S(=O)([O-])[O-].[Cl-].[NH2-].[NH2-].[NH2-].[NH2-].[Ru+3].c1ccncc1 | – | > 100 µM | – | > 100 µM | – | > 100 µM | – | – | – | > 100 µM | – | > 100 µM | – | – | > 100 µM | – | > 100 µM | – | > 100 µM | > 100 µM |
| Cc1cc2nc3cc(C)c(N)cc3[n+](-c3ccccc3)c2cc1N | 2.23 µM | > 100 µM | > 100 µM | > 100 µM | 2.83 µM | > 100 µM | 2.64 µM | 18.8 µM | 3.88 µM | 27.8 µM | 36.6 µM | > 100 µM | – | 3.73 µM | > 41 µM | 6.26 µM | > 100 µM | 46.3 µM | > 100 µM | – |
| O=S1(=O)CCCS(=O)(=O)C(c2ccccc2)=C1c1ccccc1 | – | > 100 µM | – | > 100 µM | – | > 100 µM | – | – | – | 85.3 µM | – | > 100 µM | – | – | 89.9 µM | – | > 100 µM | – | > 100 µM | > 100 µM |
| COC1C(OC(=O)/C=C/C=C/C=C/C=C\C(=O)O)CCC2(CO2)C1C1(C)OC1CC=C(C)C (centres undefined) | > 200 µM | > 200 µM | > 200 µM | > 200 µM | – | – | > 200 µM | > 200 µM | > 200 µM | > 200 µM | > 200 µM | > 200 µM | – | > 200 µM | > 200 µM | > 200 µM | > 200 µM | > 200 µM | > 200 µM | – |
